“And” between values parts separate entries of the source, which are not always exact repeats. Identical values can stand only once. Like-named read-outs stand apart in the source and are kept apart here.
Experiments:
MCF-7 cells [1] = test: Cell viability assay (MTT, DIC microscopy) at 20 μM; type: cell-based, human; set-up: key to Summary of cell viability activities (active/inactive): Y and N indicates active and inactive compounds respectively; Y and N indicates active and inactive compounds respectively; settings: for effect on cell viability (in words): up to 96 hrs; for Summary of cell viability activities (active/inactive): MCF-7 cells, 20 μM, 24-96 hrs, MTT
Procedure: (A-F): MCF-7 cells were treated with 20 μM metallo-salens and incubated for varying time periods (24-96 hrs). Viable cells were quantified using MTT assay. The percent viable cells (relative to control, treated with equivalent amount of DMSO) were plotted as a function of time for each compound. This experiment was repeated twice with 8 replicate treatments each time. Bars indicates standard errors of mean (SEM). Curves 1-42 in FIGS. 2A-2F, represent the viability curves for compounds 1-42 respectively. (A′-F′) DIC images of the corresponding MCF-7 cells that were treated with DMSO (control panel), or with 20 μM Mn(III)- and Fe(III)-salen complexes for 72 hrs showing the visual effects on cellular morphology and growth/death.
Cell viability assay: Approximately 10,000 MCF-7 cells were seeded into each well of a 96 well micro titer plate and incubated 24 hrs in presence of 150 μL DMEM. An additional 50 μL DMEM containing required amount of each metallo-salen to obtain 20 μM final concentrations (in 200 μL final volume) in 8 replicate wells were added. Control wells were treated with equivalent amount of dimethylsulfoxide (DMSO). The viability of the cells was assayed at 24, 48, 72 and 96 hrs post treatment by using both microscopic observation and MTT assay. For microscopic observation cells were stained with trypan blue for at least 10 minute and observed under Differential Interference Contrast (DIC) setting of a fluorescence microscope (Nikon Eclipse TE2000-U, Japan). The MTT assay was performed as described previously^42. In brief, 20 μL MTT (5 mg/ml in PBS) was added into each wells and incubated for 2 hrs under normal growth condition to allow the viable cell to convert MTT to formazan. Then the media was discarded and formazan crystals were dissolved by adding 100 μL of DMSO and incubating 2 hrs with continuous shaking. The absorbance of the lysates were directly measured at 560 nm using a micro plate reader (Fluostar-omega, BMG Labtech). The absorbance values (which are proportional to the viable cell) are plotted as a function of time. The studies were repeated twice with 8 replicates each time.
The inventors studied the effect of Mn(III)-salen and Fe(III)-salen derivatives on the cell viability of cultured breast cancer cells MCF-7 in order to investigate the biochemical effects of the derivatives. The cells were incubated alone or with 20 μM of each of the metallo-salen derivatives separately (compounds 1-45) for varying time periods (0-96 hrs). The viable cells were quantified using MTT assay and the percent of cell survived (relative to the control untreated cells) were plotted against time (FIGS. 2A-2F).

[2] = system: colon cancer xenograft (CCL228 cells); test: Colon cancer xenograft experiment; type: in vivo; settings: Athymic nude nu/nu mice, intraperitoneal, 10 mg/kg, twice a week
Procedure: Athymic nude nu/nu mice carrying the colon cancer xenograft were administered with 10 mg/kg of 3,3′-dimethoxy Mn(III)-salen (compound 6), 3,3′-dihydroxy Mn(III)-salphen (compound 9) and 3,3′-dihydroxy Mn(III)-salnaphen (compound 16) at 4 days interval, for over a period of 21 days. Tumor diameters were measured using a slide caliper prior to each administration and plotted (left panel). Bar indicated standard deviation (3 replicate experiments).
All the animal experiments were carried out using the IACUC approved protocol. For examining the efficacies of metallo-salen complexes, the inventors administered selected metallo-salen complexes in PBS intraperitoneally on Athymic nude nu/nu mice (Harlan) carrying the colon cancer xenografts. In brief, 2×10^6 human colon cancer cells (CCL228 cell in 100 μl of PBS) were injected subcutaneously (near the right back limb). Animals were examined daily for signs of tumor growth and behavior. Once the tumor size reached ˜25 mm^2 (2 to 3 weeks after injection of cells) the inventors administered the metallo-salen complexes intraperitoneally (in PBS solution, twice in a week, in three parallel replicates). Control mice were injected with equal volume of the diluents (PBS) alone. Prior to every new treatment with metallo-salen complexes, bi-dimensional measurements were carried out using calipers and cross-sectional area (tumor size) and data were plotted (FIG. 8A).
Xenograft experiment: To test the efficacy in controlling the tumor growth, the inventors administered compound compounds, 6, 9 and 16, intraperitoneally to six week old Athymic nude nu/nu mice carrying the colon cancer xenograft. In brief, 2×10^6 human colon cancer cells (CCL228 cell in 100 μl of PBS) were injected subcutaneously (near the right back limb). Animals were examined daily for signs of tumor growth and behavior. Once the tumor size reached ˜25 mm^2 (2 to 3 weeks after injection of cells) the inventors administered compounds 6, 9, and 16 intraperitoneally (separately in PBS solution, twice a week, 10 mg/kg dose). Every study was performed in three parallel replicates. […]

MCF-7 cells [3] = test: Cytotoxicity assay (IC50 measurement, MTT); type: cell-based, human; settings: MCF-7, 96 hrs
Procedure: Cytotoxicity assay (IC50 measurement): The cytotoxicity of Fe(III)-salen and its derivatives was determined by using MTT assay as described previously^42. In brief, approximately 10,000 MCF-7 cells were seeded into each well of a 96 well micro titer plate and incubated 24 hrs in presence of 150 μL DMEM. An additional 50 μL DMEM containing required amount of each metallo-salen to obtain 0.05 to 60 μM final concentration (in 200 μL final volume) in 8 replicate wells were added. Control wells were treated with equivalent amount of DMSO. After 96 hrs of incubation, 20 μL of MTT (5 mg/mL) was added into each well and cell viability was assayed by measuring the formazan absorption at 560 nm as described above. The absorbance (at 560 nm) values were plotted against concentration of metallo-salens to determine the IC50. The studies were repeated twice with 8 replicates each time.
The concentration of the metal-complexes at which the conversion of MTT to formazan by viable cells is reduced by 50% compared to control cells is defined as the IC50. The percent of cell survival relative to the control cells were plotted as a function of concentration of the metallo-salen derivatives.

Animal toxicity = type: in vivo; settings: C57B mice, intraperitoneal, 5, 10 and 20 mg/kg, twice a week for 4 weeks
Procedure: The inventors intraperitoneally administered the Mn(III)-salen complexes (in PBS) at three different dozes (5, 10 and 20 mg/kg of mice, 6 weeks old normal C57B mice). The mice were treated twice a week for 4 weeks. After treatment, sign of toxicity were monitored (such as weight loss, mobility), animal behavior and health on a daily basis.

[4] = read-out: IC50 values for different complexes in MCF-7 cells
[5] = read-out: IC50 toward MCF-7 cells

SMILES | Summary of cell viability activities (active/inactive) (MCF-7 cells [1]) | IC50 (MCF-7 cells [3]; [4]) | also measured
CC(=O)[O-].COc1ccc(C=NCCN=Cc2ccc(OC)cc2[O-])c([O-])c1.[Mn+3] [compound 6, 4,4′-Dimethoxysalen Mn(III) acetate] | Y (6) | 12.3 µM | effect on cell viability (in words) (MCF-7 cells [1]; MCF-7, 20 μM): induced efficient cell death; tumor growth in colon cancer xenograft [2]: complete arrest of tumor growth; animal toxicity (Animal toxicity): did not have any significant animal toxicity; survival and body weight (Animal toxicity): survived without significant loss of body weight
CC(=O)[O-].[Mn+3].[O-]c1c(O)cccc1C=Nc1ccccc1N=Cc1cccc(O)c1[O-] [compound 9, 3,3′-Dihydroxysalphen Mn(III) acetate] | Y (9) | 17.3 µM | tumor growth in colon cancer xenograft [2]: complete arrest of tumor growth; animal toxicity (Animal toxicity): did not have any significant animal toxicity; survival and body weight (Animal toxicity): survived without significant loss of body weight
CC(=O)[O-].[Mn+3].[O-]c1cc(O)ccc1C=Nc1cc2ccccc2cc1N=Cc1ccc(O)cc1[O-] [compound 17, 4,4′-Dihydroxysalnaphen Mn(III) acetate] | Y (17) | 21.4 µM | effect on cell viability (in words) (MCF-7 cells [1]; MCF-7, 20 μM): effective in inducing cell death
CC(=O)[O-].COc1cccc(C=Nc2cc3ccccc3cc2N=Cc2cccc(OC)c2[O-])c1[O-].[Mn+3] [compound 19, 3,3′-Dimethoxysalnaphen Mn(III) acetate] | Y (19) | 39.7 µM | –
CC(=O)[O-].COc1ccc(C=Nc2cc3ccccc3cc2N=Cc2ccc(OC)cc2[O-])c([O-])c1.[Mn+3] [compound 20, 4,4′-Dimethoxysalnaphen Mn(III) acetate] | Y (20) | 20.4 µM and 20.5 µM | –
CC(=O)[O-].COc1ccc([O-])c(C=Nc2cc3ccccc3cc2N=Cc2cc(OC)ccc2[O-])c1.[Mn+3] [compound 21, 5,5′-Dimethoxysalnaphen Mn(III) acetate] | Y (21) | 19.3 µM | –
[Cl-].[Fe+3].[O-]c1ccccc1C=NCCN=Cc1ccccc1[O-] [compound 22, Fe(III)-salen chloride] | Y (22) | 22.4 µM | effect on cell viability (in words) (MCF-7 cells [1]; MCF-7, 20 μM): highly effective in killing MCF-7 cells
COc1ccc([O-])c(C=NCCN=Cc2cc(OC)ccc2[O-])c1.[Cl-].[Fe+3] [compound 28, 5,5′-Dimethoxysalen Fe(III) chloride] | Y (28) | 4.56 µM | cells killed in less than 24 hrs (MCF-7 cells [1]; MCF-7, 20 μM, less than 24 hrs): more than 80%; effect on cell viability (in words) (MCF-7 cells [1]; MCF-7, 20 μM): highly effective in killing MCF-7 cells
[Cl-].[Fe+3].[O-]c1ccccc1C=Nc1ccccc1N=Cc1ccccc1[O-] [compound 29, Fe(III)-salphen.chloride] | Y (29) | 1.25 µM | –
[Cl-].[Fe+3].[O-]c1c(O)cccc1C=Nc1ccccc1N=Cc1cccc(O)c1[O-] [compound 30, 3,3′-Dihydroxysalphen Fe(III) chloride] | Y (30) | – | IC50 (MCF-7 cells [3]; [5]): 0.33 µM
COc1cccc(C=Nc2ccccc2N=Cc2cccc(OC)c2[O-])c1[O-].[Cl-].[Fe+3] [compound 33, 3,3′-Dimethoxysalphen Fe(III) chloride] | Y (33) | 4.15 µM | –
COc1ccc(C=Nc2ccccc2N=Cc2ccc(OC)cc2[O-])c([O-])c1.[Cl-].[Fe+3] [compound 34, 4,4′-Dimethoxysalphen Fe(III) chloride] | Y (34) | – | IC50 (MCF-7 cells [3]; [5]): 0.68 µM
COc1ccc([O-])c(C=Nc2ccccc2N=Cc2cc(OC)ccc2[O-])c1.[Cl-].[Fe+3] [compound 35, 5,5′-Dimethoxysalphen Fe(III) chloride] | Y (35) | 3.11 µM | –
[Cl-].[Fe+3].[O-]c1ccccc1C=Nc1cc2ccccc2cc1N=Cc1ccccc1[O-] [compound 36, Fe(III)-salnaphen chloride] | Y (36) | – | IC50 (MCF-7 cells [3]; [5]): 0.54 µM
[Cl-].[Fe+3].[O-]c1c(O)cccc1C=Nc1cc2ccccc2cc1N=Cc1cccc(O)c1[O-] [compound 37, 3,3′-Dihydroxysalnaphen Fe(III) chloride] | Y (37) | – | IC50 (MCF-7 cells [3]; [5]): 0.22 µM
COc1cccc(C=Nc2cc3ccccc3cc2N=Cc2cccc(OC)c2[O-])c1[O-].[Cl-].[Fe+3] [compound 40, 3,3′-Dimethoxysalnaphen Fe(III) chloride] | Y (40 | 1.5 µM | –
COc1ccc(C=Nc2cc3ccccc3cc2N=Cc2ccc(OC)cc2[O-])c([O-])c1.[Cl-].[Fe+3] [compound 41, 4,4′-Dimethoxysalnaphen Fe(III) chloride] | Y (41) | – | IC50 (MCF-7 cells [3]; [5]): 0.53 µM

Reference: patent US8198322B2, “Apoptotic and anti-tumor activities of metallo-salens” (Board of Regents, The University of Texas System, priority 2008, dated 2012)
